Laboratory results as given in publication PMC11387443, “Determination of bisphosphonate properties in terms of bioavailability, bone affinity, and cytotoxicity” (Pharmacological Reports, 2024).
“Also recorded” adds a separate entry of the source.

What was measured:
[1] = Sorption of bisphosphonates on hydroxyapatite in SBF; assay type: physicochemical; settings: 0.7 mM, 30 mg HA; for affinity for HA (sorption), comparison in words: 10 mL SBF, 1, 2 and 48 h
Protocol: The first step was to investigate the effect of concentration on the RSD sorption on HA. The sorption capacity was examined for 4 concentrations (0.2, 0.5, 0.7 and 1 mM). 30 mg (+ /− 0.1 mg) of HA was weighed into polypropylene tubes. Subsequently, 10 mL of Simulated Body Fluid (SBF) (Table 2) containing BPs was poured into the tubes and placed in a shaker for 1 h, 2 h, and 48 h. Sorption of BP compounds on HA was measured using a UV–VIS spectrophotometer after 5 min of centrifugation (speed 4000 rpm). The compound concentrations were measured by Multiskan152 Sky Microplate Spectrophotometer (Thermo Fisher Scientific, Waltham, MA, USA). Next, for one concentration (0.7 mM), sorption studies of all BPs were conducted in the same manner as indicated above for RSD. The measurements were conducted in the range of 220–400 nm. The quantitative assessment was performed based on the calibration curve method at the absorbance maximum for each BP (absorption properties of the tested compounds are summarized in Table 3).

[2] = system: Lactobacillus paracasei PCM 3039; assay: Bacterial cell membrane permeability (Crystal Violet uptake); assay type: cell-based; settings: 0.2 mg mL^−1 BP, 24 h; for Crystal Violet uptake (cell membrane permeability): Ctrl 33.4 ± 8.0%
Protocol: (§1) Lactobacillus paracasei PCM 3039 used in the experiments was purchased from the Polish Collection of Microorganisms (Wroclaw, Poland). The liquid cultures were composed of the minimal medium (10% solution of MRS Broth in Dulbecco’s Phosphate Buffered Saline (DPBS)), the inoculum, and a BP stock solution in water (initial concentration of BPs in each culture was 0.2 mg mL^−1). The bacterial inoculum was prepared from the broth cultures incubated overnight at 37 °C and washed twice with a sterile medium. The initial cell concentration in each culture was adjusted to 1–10^8 cfu mL^−1. The reference cultures without the addition of BPs (denoted as Ctrl) and the abiotic control samples with the addition of pure minimal medium instead of bacterial inoculum were carried out. All samples were incubated at 36 °C for 24 h with shaking (150 rpm). The effect of BPs on the properties of bacterial cells was also evaluated. The experiments performed include (i) modifications of the bacterial cell membrane permeability—the measurements were based on the Crystal Violet uptake by the cells, (ii) modifications of the bacterial cell wall hydrophobicity, based on the procedure described previously. Relative metabolic activity of cells treated with the compounds in question measured with the colorimetric test AlamarBlue® Cell Viability Assay.

[3] = system: Lactobacillus paracasei PCM 3039; assay: Relative metabolic activity (AlamarBlue Cell Viability Assay); assay type: cell-based; settings: 0.2 mg mL^−1 BP, relative to control group set at 100%
Protocol: as §1

[4] = set-up: method as in PMID 34277124; settings: cited from earlier work
[5] = Parallel artificial membrane permeability assay (PAMPA); assay type: in vitro ADME; settings: 175 μM in PBS pH 7.4, 5 h; for PAMPA permeability, comparison in words: room temperature
Protocol: A parallel artificial membrane permeability assay (PAMPA) (Corning® Gentest™ Pre-coated PAMPA Plate System Gentest, USA) was prepared according to the recommended protocol. 96-well PAMPA plate was heated to room temperature for at least 30 min. Compound solutions were prepared in buffer (175 μM in PBS, pH 7.4). 300 μL of the BP solution was added to each donor plate well, and 200 μL of buffer (PBS, pH 7.4) was added to each acceptor plate. The filter plate (acceptor plate) was then placed on the receiver plate (donor plane) and the plate assembly was incubated at room temperature for 5 h. The compound amounts were measured by Multiskan152 SkyMicroplate Spectrophotometer (Thermo Fisher Scientific, Waltham, USA). The permeability of the BPs was calculated using the following formula (Eq. 1)1 Pe=-In[1-CA(t)/Cequilibrium]/A∗(1/VD+1/VA)∗t where Pe is the permeability (cm s^−1), Cequilibrium is [CD(t) × VD + CA(t) × VA]/(VD + VA), CD(t) indicates the compound concentration in donor well at time t (mM), CA(t) indicates the compound concentration in acceptor well at time t (mM), VD is the donor well volume (0.3 mL), VA is the acceptor well volume (0.2 mL), t is the incubation time (18000 s), and A is the effective filter area (0.3 cm^2).

[6] = system: Lactobacillus paracasei PCM 3039; assay: Bacterial cell wall hydrophobicity (Congo Red binding); assay type: cell-based; settings: 0.2 mg mL^−1 BP, 24 h; Ctrl 39.7 ± 8.0%
Protocol: as §1

[7] = system: Lactobacillus paracasei PCM 3039; assay: Growth curve of L. paracasei (OD600); assay type: cell-based; settings: 0.2 mg mL^−1 BP, 24 h
Protocol: Lactobacillus paracasei PCM 3039 used in the experiments was purchased from the Polish Collection of Microorganisms (Wroclaw, Poland). The liquid cultures were composed of the minimal medium (10% solution of MRS Broth in Dulbecco’s Phosphate Buffered Saline (DPBS)), the inoculum, and a BP stock solution in water (initial concentration of BPs in each culture was 0.2 mg mL^−1). The bacterial inoculum was prepared from the broth cultures incubated overnight at 37 °C and washed twice with a sterile medium. The initial cell concentration in each culture was adjusted to 1–10^8 cfu mL^−1. The reference cultures without the addition of BPs (denoted as Ctrl) and the abiotic control samples with the addition of pure minimal medium instead of bacterial inoculum were carried out. All samples were incubated at 36 °C for 24 h with shaking (150 rpm). The growth of cells treated with BPs as well as control cells was monitored by measuring the optical density at the wavelength of 600 nm (OD600) as described by. The growth curve measurements were performed with a microplate reader Multiskan 152 Sky (Thermo Fisher Scientific, Waltham, MA, USA). 200 μL of the prepared bacterial cultures were transferred to the 96-well clear bottom sterile microplates wells. The plates were maintained at 37 °C with pulse shaking. The OD600 of each well was read every 10 min for 24 h.

[8] = set-up: method as in PMID 32387834; settings: oral; cited from earlier work
[9] = set-up: method as in PMID 18056045; settings: cited from earlier work
[10] = set-up: method as in PMID 26542347; settings: in vitro artificial intestinal membrane; cited from earlier work
Caco-2 cell monolayer = system: Caco-2 cell monolayer; set-up: method as in PMID 26542347; settings: cited from earlier work

SMILES	affinity for HA (sorption), comparison in words [1]	change in membrane permeability in comparison with RSD [2]	AlamarBlue Reduction (relative metabolic activity) [3]	Crystal Violet uptake (cell membrane permeability) [2] [%]	Congo Red Binding (cell wall hydrophobicity) [6] [%]	other results
O=P(O)(O)C(Nc1ccccn1)P(=O)(O)O [BP1, 2-pyridinylaminomethylene-1,1-bisphosphonic acid]	slightly higher affinity for HA than RSD	significant decrease	approximately 154.0%	–	–	sorption and desorption on polymer-ceramic materials [4]: high sorption levels on polymer-ceramic materials, followed by extensive desorption
Cc1cccnc1NC(P(=O)(O)O)P(=O)(O)O [BP2, (3-methyl-2-pyridinyl)aminomethylene-1,1-bisphosphonic acid]	lower affinity	–	approximately 154.0%	–	–	drug concentration in the acceptor plate relative to RSD [5]: over twice as high as RSD; PAMPA permeability, comparison in words [5]: higher permeability than the other two compounds; sorption and desorption on polymer-ceramic materials [4]: high sorption levels on polymer-ceramic materials, followed by extensive desorption
Cc1ccnc(NC(P(=O)(O)O)P(=O)(O)O)c1 [BP3, (4-methyl-2-pyridinyl)aminomethylene-1,1-bisphosphonic acid]	–	significant decrease	–	–	–	–
Cc1ccc(NC(P(=O)(O)O)P(=O)(O)O)nc1 [BP4, (5-methyl-2-pyridinyl)aminomethylene-1,1-bisphosphonic acid]	–	–	approximately 154.0%	62.7 ± 8.4	89.3 ± 3.5	drug concentration in the acceptor plate relative to RSD [5]: over twice as high as RSD; PAMPA permeability, comparison in words [5]: higher permeability than the other two compounds
Cc1cc(C)nc(NC(P(=O)(O)O)P(=O)(O)O)c1 [BP5, (4,6-dimethyl-2-pyridinyl)amino-methylene-1,1-bisphosphonic acid]	lower affinity	significant decrease	–	–	–	–
O=P(O)(O)C(Nc1ccc(I)cn1)P(=O)(O)O [BP6, (5-iodo-2-pyridinyl)amino-methylene-1,1-bisphosphonic acid]	slightly higher affinity for HA than RSD	–	–	–	–	–
O=P(O)(O)C(Nc1ccc(Br)cn1)P(=O)(O)O [BP7, (5-bromo-2-pyridinyl)amino-methylene-1,1-bisphosphonic acid]	slightly higher affinity for HA than RSD	significant decrease	–	30.6 ± 6.0	45.0 ± 5.8	drug concentration in the acceptor plate relative to RSD [5]: over twice as high as RSD
O=P(O)(O)C(Nc1ccc(Cl)cn1)P(=O)(O)O [BP8, (5-chloro-2-pyridinyl)amino-methylene-1,1-bisphosphonic acid]	stronger affinity for HA than RSD	–	–	–	82.1 ± 1.7	drug concentration in the acceptor plate relative to RSD [5]: over twice as high as RSD; PAMPA permeability, comparison in words [5]: higher than twice as much as BP9 permeability; also recorded: highest permeability among all analyzed BPs
O=P(O)(O)C(Nc1cccc(Cl)n1)P(=O)(O)O [BP9, (6-chloro-2-pyridinyl)amino-methylene-1,1-bisphosphonic acid]	–	–	35.9 ± 16.7%	61.9 ± 5.7	85.0 ± 2.4	–
O=P(O)(O)C(Nc1cccnc1Cl)P(=O)(O)O [BP10]	–	–	–	60.6 ± 8.7	86.4 ± 1.7	–
O=P(O)(O)C(Nc1cccc(O)n1)P(=O)(O)O [BP11, (6-hydroksy-2-pyridinyl)amino-methylene-1,1-bisphosphonic acid]	highest sorption	significant decrease	60.4 ± 3.4%	30.9 ± 6.4	35.2 ± 6.1	PAMPA permeability, comparison in words [5]: highest permeability among all analyzed BPs
O=P(O)(O)C(Nc1nc2ccccc2s1)P(=O)(O)O [BP12, N-(1,3-benzothiazol-2-yl)amino-methylene-1,1-bisphosphonic acid]	lower affinity for HA compared to RSD and BP1	–	–	–	–	sorption and desorption on polymer-ceramic materials [4]: high sorption levels on polymer-ceramic materials, followed by extensive desorption
O=P(O)(O)C(O)(Cc1cccnc1)P(=O)(O)O [RSD, Risedronate]	–	–	–	–	–	sorption on HA ([1]; 10 mL SBF): approximately 50%; growth of L. paracasei (OD600 growth curve), in words [7]: initial fast cell growth was followed by a rapid decrease in cell density; bioavailability [8]: 0.62%; urinary excretion 24 h after the first dose [9]: 65%
O=P(O)(O)C(O)(Cn1ccnc1)P(=O)(O)O [Zoledronate, zoledronic acid]	–	–	–	–	–	permeability Pe [10]: Not detected; apparent permeability coefficient Papp (Caco-2 cell monolayer): 2.72 ± 0.868 (× 10^−6) cm s^−1; urinary excretion 24 h after the first dose [9]: 38%
O=P(O)(O)C(Cl)(Cl)P(=O)(O)O [clodronate]	–	–	–	–	–	urinary excretion 24 h after the first dose [9]: 73%
